Test results published in US9499492B2, “4-(ortho)-fluorophenyl-5-fluoropyrimidin-2-yl amines containing a sulfoximine group” (BAYER PHARMA AKTIENGESELLSCHAFT, priority 2012, dated 2016).
Like-named read-outs stand apart in the source and are kept apart here.

Tests used:
[1] = biological target: human carbonic anhydrase-2 (Homo sapiens (Human), UniProt P00918); assay: Carbonic anhydrase assay, carbonic anhydrase-2 (Method 4); assay type: biochemical; conditions: read-out: Inhibition of Carbonic anhydrase-2 IC50
Procedure: (§1) 4. Carbonic Anhydrase Assay
The principle of the assay is based on the hydrolysis of 4-nitrophenyl acetate by carbonic anhydrases (Pocker & Stone, Biochemistry, 1967, 6, 668), with subsequent photometric determination of the dye product 4-nitrophenolate at 400 nm by means of a 96-channel spectral photometer.
(§2) 2 μL of the test compounds, dissolved in DMSO (100-fold final concentration), in a concentration range of 0.03-10 μmol/L (final), was pipetted as quadruplicates into the wells of a 96-hole microtiter plate. Wells that contained the solvent without test compounds were used as reference values (1. Wells without carbonic anhydrase for correction of the non-enzymatic hydrolysis of the substrate, and 2. Wells with carbonic anhydrase for determining the activity of the non-inhibited enzyme).
(§3) 188 μL of assay buffer (10 mmol/L of Tris/HCl, pH 7.4, 80 mmol/L of NaCl), with or without 3 units/well of carbonic anhydrase-1 [=human carbonic anhydrase-1 (Sigma, #C4396)] in order to determine carbonic anhydrase-1 inhibition or 3 units/well of carbonic anhydrase-2 [=human carbonic anhydrase-2 (Sigma, #C6165)] for measuring carbonic anhydrase-2 inhibition, was pipetted into the wells of the microtiter plate.

[2] = biological target: human carbonic anhydrase-1 (Homo sapiens (Human), UniProt P00915); assay: Carbonic anhydrase assay, carbonic anhydrase-1 (Method 4); assay type: biochemical; conditions: read-out: Inhibition of Carbonic anhydrase-1 IC50
Sequence of human carbonic anhydrase-1 (P00915 whole entry): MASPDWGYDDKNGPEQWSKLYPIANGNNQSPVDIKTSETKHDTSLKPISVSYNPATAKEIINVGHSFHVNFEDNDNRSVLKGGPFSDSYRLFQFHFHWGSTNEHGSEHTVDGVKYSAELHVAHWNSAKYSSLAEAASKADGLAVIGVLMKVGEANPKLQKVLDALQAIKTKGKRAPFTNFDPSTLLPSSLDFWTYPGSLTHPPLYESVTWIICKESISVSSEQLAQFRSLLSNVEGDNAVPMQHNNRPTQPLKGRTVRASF
Procedure: as §1, §2, §3

[3] = In vivo pharmacokinetics in rats (Method 6); conditions: male, Wistar, plasma; rat, iv dosing; read-out: t1/2: terminal half-life from in vivo rat study (converted)
Procedure: 6. In Vivo Pharmacokinetics in Rats
For in vivo pharmacokinetic experiments test compounds were administered to male Wistar rats intravenously at doses of 0.3 to 1 mg/kg formulated as solutions using either rat plasma or solubilizers such as PEG400 in well-tolerated amounts.
For pharmacokinetics after intravenous administration test compounds were given as i.v. bolus and blood samples were taken at 2 min, 8 min, 15 min, 30 min, 45 min, 1 h, 2 h, 4 h, 6 h, 8 h and 24 h after dosing. […] Blood was collected into Lithium-Heparin tubes (Monovetten®, Sarstedt) and centrifuged for 15 min at 3000 rpm. An aliquot of 100 μL from the supernatant (plasma) was taken and precipitated by addition of 400 μL icecold acetonitril and frozen at −20° C. over night. Samples were subsequently thawed and centrifuged at 3000 rpm, 4° C. for 20 minutes. Aliquots of the supernatants were taken for analytical testing using an Agilent 1200 HPLC-system with LCMS/MS detection. PK parameters were calculated by non-compartmental analysis using a PK calculation software.
PK parameters derived from concentration-time profiles after i.v.: CLplasma: Total plasma clearance of test compound (in L/kg/h); CLblood: Total blood clearance of test compound: CLplasma*Cp/Cb (in L/kg/h) with Cp/Cb being the ratio of concentrations in plasma and blood, AUCnorm: Area under the concentration-time curve from t=0 h to infinity (extrapolated) divided by the administered dose (in kg*h/L); t½: terminal half-life (in h).

[4] = test system: MOLM-13 human acute myeloid leukemia cells; assay: Proliferation assay, MOLM-13 (Cell Titre-Glo, Method 3); assay type: cell-based; conditions: MOLM-13, 72-hour exposure, read-out: Inhibition of MOLM-13 cell proliferation IC50
Procedure: Non-adherent MOLM-13 human acute myeloid leukemia cells (DSMZ ACC 554) were seeded at a density of 5,000 cells/well in a 96-well multititer plate in 100 μL of growth medium supplemented 10% fetal calf serum. After 24 hours, cell viability of one plate (zero-point plate) was determined with the Cell Titre-Glo Luminescent Cell Viability Assay (Promega), while 50 μL of test compound containing medium was added to the wells of the other plates (final concentrations in the range of 0.001-10 μM and DMSO controls; the final concentration of the solvent dimethyl sulfoxide was 0.5%). Cell viability was assessed after 72-hour exposure with the Cell Titre-Glo Luminescent Cell Viability Assay (Promega).

Row | IC50 [1] | IC50 [2] | half-life [3] | IC50 ([4]; Homo sapiens, MOLM-13, 72 h) | IC50 [4] | Structure (SMILES)
1 | > 10 µM | > 10 µM | – | – | – | CS(=O)(Cc1cc(Nc2ncc(F)c(-c3ccc(F)cc3F)n2)cc(C(F)(F)F)c1)=NC(N)=O (racemic) [Example 7, (rac)-1-{[3-{[4-(2,4-Difluorophenyl)-5-fluoropyrimidin-2-yl]amino}-5-(trifluoromethyl)benzyl](methyl)oxido-λ^6-sulfanylidene}urea]
2 | – | – | 4.3 h | – | – | CS(=O)(Cc1cc(Nc2ncc(F)c(-c3ccc(F)cc3F)n2)cc(C(F)(F)F)c1)=NC#N (single isomer, unassigned) [Example 2, {[3-{[4-(2,4-Difluorophenyl)-5-fluoropyrimidin-2-yl]amino}-5-(trifluoromethyl)benzyl](methyl)oxido-λ^6-sulfanylidene}cyanamide]
3 | – | – | – | – | 0.2 µM | CS(=O)(Cc1cc(Nc2ncc(F)c(-c3ccc(F)cc3F)n2)cc(S(F)(F)(F)(F)F)c1)=NC(N)=O (single isomer, unassigned) [Example 33, 1-{[3-{[4-(2,4-Difluorophenyl)-5-fluoropyrimidin-2-yl]amino}-5-(pentafluoro-λ^6-sulfanyl)benzyl](methyl)oxido-λ^6-sulfanylidene}urea]

Further lines, the molecule ahead of its results:

Row | Structure (SMILES) | IC50 [1] | IC50 [2] | half-life [3] | IC50 ([4]; Homo sapiens, MOLM-13, 72 h) | IC50 [4]
4 | CS(=O)(Cc1cc(Nc2ncc(F)c(-c3ccc(F)cc3F)n2)cc(C(F)(F)F)c1)=NC#N (racemic) [Example 1, (rac)-{[3-{[4-(2,4-Difluorophenyl)-5-fluoropyrimidin-2-yl]amino}-5-(trifluoromethyl)benzyl](methyl)oxido-λ^6-sulfanylidene}cyanamide] | > 10 µM | > 10 µM | – | – | –
5 | CS(=N)(=O)Cc1cc(Nc2ncc(F)c(-c3ccc(F)cc3F)n2)cc(C(F)(F)F)c1 (racemic) [Example 4, (rac)-4-(2,4-Difluorophenyl)-5-fluoro-N-{3-[(S-methylsulfonimidoyl)methyl]-5-(trifluoromethyl)phenyl}pyrimidin-2-amine] | > 10 µM | > 10 µM | 4.5 h | – | –
6 | CS(=N)(=O)Cc1cc(Cl)cc(Nc2ncc(F)c(-c3ccc(F)cc3F)n2)c1 (racemic) [Example 15, (rac)-N-{3-chloro-5-[(S-methylsulfonimidoyl)methyl]phenyl}-4-(2,4-difluorophenyl)-5-fluoropyrimidin-2-amine] | > 10 µM | > 10 µM | – | – | –
7 | CS(=O)(Cc1cc(Nc2ncc(F)c(-c3ccc(F)cc3F)n2)cc(S(F)(F)(F)(F)F)c1)=NC#N (racemic) [Example 28, (rac)-{[3-{[4-(2,4-Difluorophenyl)-5-fluoropyrimidin-2-yl]amino}-5-(pentafluoro-λ^6-sulfanyl)benzyl](methyl)oxido-λ^6-sulfanylidene}cyanamide] | – | – | – | 0.145 µM | –
8 | CS(=N)(=O)Cc1cc(Nc2ncc(F)c(-c3ccc(F)cc3F)n2)cc(S(F)(F)(F)(F)F)c1 (single isomer, unassigned) [Example 32, 4-(2,4-Difluorophenyl)-5-fluoro-N-{3-[(S-methylsulfonimidoyl)methyl]-5-(pentafluoro-λ^6-sulfanyl)phenyl}pyrimidin-2-amine] | – | – | 15 h | – | 0.165 µM
